Experimental data published in PMC12526004, “Tiliroside Suppresses Uric Acid Production in Hepatocytes and Attenuates Purine-Induced Hyperuricemia in Male ICR Mice” (Molecules, 2025).

Experiments:
[1] = tested on: NPT4; experiment: Renal mRNA expression, real-time quantitative PCR; format: in vivo, male ICR mice; conditions: three days
Description: (§1) The antihyperuricemic effect of tiliroside was evaluated using mice with purine-induced hyperuricemia, following a previously described procedure. […] The test compounds were suspended in 0.2 mL of 0.5% CMC-Na based on the average body weight of each group. The actual volume administered was adjusted according to the individual body weight of each mouse. Prior to each administration, the mice were fasted for four hours. The negative and hyperuricemic control groups received the vehicle (0.5% CMC-Na) alone. […] GMP and IMP were dissolved in 0.2 mL of PBS (–) based on the average body weight of all mice. The injection volume was similarly adjusted according to each mouse’s body weight. These injections were performed one hour after the final oral administration of the test compounds or vehicle. The negative control group received PBS (–) alone. […] The liver and kidneys were then excised. Blood samples were centrifuged at 5000× g for 10 min at 4 °C to obtain plasma, which was stored at −80 °C until analysis. To assess renal gene expression, four mice per group were selected based on plasma UA levels approximating the group mean. Total RNA was extracted from kidney tissues of the negative control, hyperuricemic model, allopurinol-treated, and high-dose tiliroside-treated groups using the Trizol-chloroform method (Thermo Fisher Scientific). Reverse transcription was performed with 1 µg of RNA using iScript reverse transcriptase (Bio-Rad, Hercules, CA, USA). Quantitative PCR was conducted using the MyiQ2 real-time PCR system (Bio-Rad), with GAPDH as the reference gene.

[2] = tested on: OAT1; experiment: Renal mRNA expression, real-time quantitative PCR; format: in vivo, male ICR mice; conditions: three days
Description: as §1

[3] = tested on: hepatic XO protein expression; experiment: Western blot of hepatic XO protein expression; format: in vivo, male ICR mice; conditions: three days, normalized to GAPDH
Description: The antihyperuricemic effect of tiliroside was evaluated using mice with purine-induced hyperuricemia, following a previously described procedure. […] The test compounds were suspended in 0.2 mL of 0.5% CMC-Na based on the average body weight of each group. The actual volume administered was adjusted according to the individual body weight of each mouse. Prior to each administration, the mice were fasted for four hours. The negative and hyperuricemic control groups received the vehicle (0.5% CMC-Na) alone. […] GMP and IMP were dissolved in 0.2 mL of PBS (–) based on the average body weight of all mice. The injection volume was similarly adjusted according to each mouse’s body weight. These injections were performed one hour after the final oral administration of the test compounds or vehicle. The negative control group received PBS (–) alone. […] The liver and kidneys were then excised. Blood samples were centrifuged at 5000× g for 10 min at 4 °C to obtain plasma, which was stored at −80 °C until analysis. Liver samples preparation was performed according to the methods previously described. Each portion of the liver tissue was processed for a specific analysis. One portion was homogenized in ice-cold 100 mM Tris-HCl buffer (pH 7.5), followed by sonication and centrifugation at 10,000× g for 5 min at 4 °C. The resulting supernatant was collected for the determination of UA levels. […]

[4] = tested on: XO; conditions: read-out: IC50, XO inhibition (previous report); cited from earlier work
[5] = tested on: ABCC4; experiment: Renal mRNA expression, real-time quantitative PCR; format: in vivo, male ICR mice; conditions: 300 mg/kg oral, three days
Description: as §1

[6] = tested on: GLUT9; experiment: Renal mRNA expression, real-time quantitative PCR; format: in vivo, male ICR mice; conditions: 300 mg/kg oral, three days
Description: as §1

[7] = tested on: ABCG2; experiment: Renal mRNA expression, real-time quantitative PCR; format: in vivo, male ICR mice; conditions: 300 mg/kg oral, three days
Description: as §1

[8] = target: xanthine oxidase (bovine milk-derived) (Bos taurus, UniProt P80457); experiment: XO inhibition assay in vitro (UV absorbance at 295 nm); format: biochemical; conditions: xanthine substrate, 37 °C, mean of three independent experiments, read-out: IC50, direct XO inhibitory activity
Chain of xanthine oxidase (bovine milk-derived) (P80457 whole entry): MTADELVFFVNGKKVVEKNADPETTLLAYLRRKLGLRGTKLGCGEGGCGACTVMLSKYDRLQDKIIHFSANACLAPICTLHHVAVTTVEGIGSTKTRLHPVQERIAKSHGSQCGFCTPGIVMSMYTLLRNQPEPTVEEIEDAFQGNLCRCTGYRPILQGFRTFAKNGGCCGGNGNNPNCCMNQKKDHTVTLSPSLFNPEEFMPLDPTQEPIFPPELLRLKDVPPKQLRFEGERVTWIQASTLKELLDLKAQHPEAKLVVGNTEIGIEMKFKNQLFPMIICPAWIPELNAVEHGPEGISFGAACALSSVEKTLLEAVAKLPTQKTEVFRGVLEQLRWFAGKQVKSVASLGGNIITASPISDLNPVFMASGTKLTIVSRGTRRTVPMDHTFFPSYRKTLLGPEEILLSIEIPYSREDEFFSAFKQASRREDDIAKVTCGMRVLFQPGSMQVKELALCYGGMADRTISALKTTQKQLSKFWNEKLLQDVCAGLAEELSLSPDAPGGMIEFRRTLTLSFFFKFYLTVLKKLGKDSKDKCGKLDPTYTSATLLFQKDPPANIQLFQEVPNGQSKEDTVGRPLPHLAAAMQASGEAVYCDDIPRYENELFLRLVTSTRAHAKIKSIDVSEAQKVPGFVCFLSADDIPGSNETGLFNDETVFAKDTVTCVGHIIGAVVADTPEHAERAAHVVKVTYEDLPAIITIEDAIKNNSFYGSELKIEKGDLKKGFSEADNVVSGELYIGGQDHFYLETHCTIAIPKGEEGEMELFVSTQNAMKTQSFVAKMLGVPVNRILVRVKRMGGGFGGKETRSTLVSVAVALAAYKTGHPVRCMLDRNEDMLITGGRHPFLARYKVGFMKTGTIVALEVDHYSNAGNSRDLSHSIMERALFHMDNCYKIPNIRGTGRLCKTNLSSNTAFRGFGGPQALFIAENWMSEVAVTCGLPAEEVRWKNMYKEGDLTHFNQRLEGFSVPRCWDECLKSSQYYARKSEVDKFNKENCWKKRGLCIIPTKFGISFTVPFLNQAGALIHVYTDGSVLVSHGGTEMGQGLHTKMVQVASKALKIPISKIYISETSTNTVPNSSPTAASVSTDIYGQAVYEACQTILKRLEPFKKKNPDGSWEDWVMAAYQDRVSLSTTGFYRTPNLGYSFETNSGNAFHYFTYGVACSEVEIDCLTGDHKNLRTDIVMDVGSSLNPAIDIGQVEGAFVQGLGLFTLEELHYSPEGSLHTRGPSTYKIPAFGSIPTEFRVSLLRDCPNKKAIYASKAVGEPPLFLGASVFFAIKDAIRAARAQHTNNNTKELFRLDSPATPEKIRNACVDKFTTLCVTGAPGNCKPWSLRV
Description: Prior to the assay, the compounds were freshly dissolved in a mixture of 30% dimethyl sulfoxide (DMSO; FUJIFILM Wako) and 70% phosphate buffer (100 mM, pH 7.5) to prepare test solutions at final concentrations ranging from 0 to 100 µM. In each well of a 96-well microplate, 50 µL of the test solution was mixed with 60 µL of buffer and 30 µL of xanthine oxidase (7.8 mU/mL, bovine milk-derived; Sigma-Aldrich). After preincubation at 37 °C for 10 min, the reaction was initiated by adding 60 µL of xanthine substrate (150 µM; FUJIFILM Wako). Absorbance at 295 nm was monitored for 30 min at 37 °C using a Spark 10 M microplate reader (Tecan Group Ltd., Männedorf, Switzerland). XO inhibitory activity was expressed as percentage inhibition, calculated using the formula Inhibition (%) = 100 × [1 − (B/A)], where A and B represent the absorbance increase in the absence and presence of the test compound, respectively. All measurements were performed in triplicate.
All experimental data are presented as mean ± SEM. […] Data from the in vitro XO inhibition assay are shown as mean values from three independent experiments. IC50 values were calculated by nonlinear regression analysis using dose–response curves generated from at least six concentrations of each compound. All statistical analyses were performed using GraphPad Prism version 10 (GraphPad Software, San Diego, CA, USA).

[9] = target: T1, hepatic XO (Mus musculus, UniProt Q00519); experiment: Hepatic XO activity in hyperuricemic model mice; format: in vivo, male ICR mice; conditions: three days, mean ± SEM
T1 construct: 40 µL of liver homogenate was mixed with 30 µL of ice-cold 100 mM Tris-HCl buffer; from tissue; host or cells: liver of male ICR mice (homogenate supernatant)
T1 sequence (Q00519 whole entry): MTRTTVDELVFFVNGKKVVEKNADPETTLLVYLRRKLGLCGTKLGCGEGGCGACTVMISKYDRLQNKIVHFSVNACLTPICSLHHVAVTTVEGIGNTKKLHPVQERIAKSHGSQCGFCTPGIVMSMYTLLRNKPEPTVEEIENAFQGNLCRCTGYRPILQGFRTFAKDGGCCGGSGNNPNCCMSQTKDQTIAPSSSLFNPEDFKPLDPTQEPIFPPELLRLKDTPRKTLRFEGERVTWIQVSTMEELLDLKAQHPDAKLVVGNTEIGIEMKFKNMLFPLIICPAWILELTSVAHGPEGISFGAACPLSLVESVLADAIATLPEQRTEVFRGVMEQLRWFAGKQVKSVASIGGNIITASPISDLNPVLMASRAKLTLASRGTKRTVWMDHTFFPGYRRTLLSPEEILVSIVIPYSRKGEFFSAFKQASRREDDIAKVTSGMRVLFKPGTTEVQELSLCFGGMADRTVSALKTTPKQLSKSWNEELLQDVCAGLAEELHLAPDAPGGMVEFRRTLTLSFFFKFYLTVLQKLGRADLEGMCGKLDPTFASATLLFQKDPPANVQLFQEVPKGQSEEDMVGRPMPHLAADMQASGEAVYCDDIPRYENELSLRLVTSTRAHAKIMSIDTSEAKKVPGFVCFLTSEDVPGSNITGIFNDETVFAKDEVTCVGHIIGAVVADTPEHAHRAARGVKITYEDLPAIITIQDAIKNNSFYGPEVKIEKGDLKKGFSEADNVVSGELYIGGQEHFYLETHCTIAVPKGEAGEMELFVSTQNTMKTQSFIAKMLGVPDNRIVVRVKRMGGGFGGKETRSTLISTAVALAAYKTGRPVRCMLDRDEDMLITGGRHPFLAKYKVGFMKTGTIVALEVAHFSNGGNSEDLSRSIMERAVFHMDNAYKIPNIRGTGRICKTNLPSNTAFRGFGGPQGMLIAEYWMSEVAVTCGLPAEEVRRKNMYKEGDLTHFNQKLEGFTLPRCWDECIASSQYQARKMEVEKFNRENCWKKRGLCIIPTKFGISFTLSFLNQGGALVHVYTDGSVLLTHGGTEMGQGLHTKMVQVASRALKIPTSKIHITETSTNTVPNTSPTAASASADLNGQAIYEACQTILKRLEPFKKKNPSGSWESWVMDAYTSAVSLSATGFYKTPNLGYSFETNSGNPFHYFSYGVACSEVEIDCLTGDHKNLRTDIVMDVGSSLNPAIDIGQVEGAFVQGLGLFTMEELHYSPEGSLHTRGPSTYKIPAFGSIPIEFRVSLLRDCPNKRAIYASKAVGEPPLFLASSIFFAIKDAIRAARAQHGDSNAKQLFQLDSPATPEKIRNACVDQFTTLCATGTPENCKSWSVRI
Description: The test compounds were suspended in 0.2 mL of 0.5% CMC-Na based on the average body weight of each group. The actual volume administered was adjusted according to the individual body weight of each mouse. Prior to each administration, the mice were fasted for four hours. The negative and hyperuricemic control groups received the vehicle (0.5% CMC-Na) alone. On the third day of treatment, hyperuricemia was induced by intraperitoneal injection of guanosine monophosphate (GMP) and inosine monophosphate (IMP, both from Tokyo Chemical Industry, Tokyo, Japan), each at a dose of 300 mg/kg body weight, dissolved in PBS (–). GMP and IMP were dissolved in 0.2 mL of PBS (–) based on the average body weight of all mice. The injection volume was similarly adjusted according to each mouse’s body weight. These injections were performed one hour after the final oral administration of the test compounds or vehicle. The negative control group received PBS (–) alone. […] The liver and kidneys were then excised. Blood samples were centrifuged at 5000× g for 10 min at 4 °C to obtain plasma, which was stored at −80 °C until analysis.
Liver samples preparation was performed according to the methods previously described [27]. Each portion of the liver tissue was processed for a specific analysis. One portion was homogenized in ice-cold 100 mM Tris-HCl buffer (pH 7.5), followed by sonication and centrifugation at 10,000× g for 5 min at 4 °C. […]
Hepatic XO activity was assessed using a previously reported method [28], with slight modifications to accommodate 96-well microplate measurements [33]. […] The enzymatic reaction was initiated by adding 180 µL of xanthine solution (150 µM in the same buffer), and the absorbance at 295 nm was monitored at 37 °C for 30 min using a Spark 10 M microplate reader. UA formation was quantified based on a standard curve generated with known concentrations of UA. Protein content in the homogenates was determined using the Pierce™ BCA Protein Assay Kit, and XO activity was expressed as micromoles of UA produced per minute per milligram of protein (µmol UA/min/mg protein).

[10] = design: method as in PMID 39830960; conditions: cited from earlier work
[11] = tested on: AML12 hepatocytes; experiment: Cell viability, WST-8 assay; format: cell-based; conditions: concentrations up to 100 µM, 2 h
Description: The viability of AML12 cells was determined using the WST-8 assay provided in the Cell Counting Kit-8 (Dojindo Laboratories, Kumamoto, Japan). Cells were initially seeded at 5 × 10^3 cells per well in 96-well plates and maintained in DMEM/F-12 medium containing 10% (v/v) FBS for 72 h. To induce serum deprivation, the medium was replaced with serum-free DMEM/F-12, and cells were incubated for an additional 24 h. […] The treatment lasted for 2 h. Subsequently, cells were washed again with BSS and incubated with the WST-8 reagent for 1 h. Absorbance was measured at 490 nm using a microplate reader (MTP-310Lab; CORONA […] Co., Ltd., […], Japan). Cell viability was normalized to the DMSO control (0 μM), which was set at 100%.

IC50 [8] | Hepatic XO Activity ([9]; 50 mg/kg oral) | Hepatic XO Activity ([9]; 100 mg/kg oral) | Hepatic XO Activity ([9]; 300 mg/kg oral) | SMILES | renal NPT4 mRNA expression ([1]; 10 mg/kg oral) | renal OAT1 mRNA expression ([2]; 10 mg/kg oral) | hepatic XO protein expression ([3]; 10 mg/kg oral) | IC50 [4] | renal ABCC4 mRNA expression [5] | renal NPT4 mRNA expression ([1]; 300 mg/kg oral) | renal GLUT9 mRNA expression [6] | renal ABCG2 mRNA expression [7] | renal OAT1 mRNA expression ([2]; 300 mg/kg oral) | hepatic XO protein expression ([3]; all tested doses (50, 100, and 300 mg/kg) oral) | toxicity and mutagenicity [10] | cytotoxic effects (cell viability) [11]
 |  |  |  | Oc1ncnc2[nH]ncc12 [Allopurinol, allopurinol, reference compound] | no significant differences | no significant differences | No statistically significant differences |  |  |  |  |  |  |  |  | 
> 100 µM | 0.70 ± 0.08 µmol UA/min/mg Protein | 0.82 ± 0.06 µmol UA/min/mg Protein | 0.67 ± 0.07 µmol UA/min/mg Protein | O=C(/C=C/c1ccc(O)cc1)OC[C@H]1O[C@@H](Oc2c(-c3ccc(O)cc3)oc3cc(O)cc(O)c3c2=O)[C@H](O)[C@@H](O)[C@@H]1O [Tiliroside, kaempferol-3-O-(6′′-p-coumaroyl)-glucoside] |  |  |  | > 100 µM | did not affect | no significant differences | did not affect | did not affect | no significant differences | No statistically significant differences | non-toxic and non-mutagenic | did not exhibit any cytotoxic effects
